Among the data in patent publication US11319299B2, “Substituted carboxamides as inhibitors of WDR5 protein-protein binding” (PROPELLON THERAPEUTICS INC., priority 2016, dated 2022) are Kd values, retold here.

In the test the target is WDR5 (Homo sapiens (Human), UniProt P61964). Kind of test: Surface Plasmon Resonance (SPR) assay, KD and residence time. The test is classed as binding. The following applies: surface plasmon resonance (SPR) assay; read-out: WDR5 binding affinity (KD). Background: In SPR one partner is held on a chip, and binding of the other changes the refractive index at the surface.

For orientation: Kd means a measure of binding affinity in units of concentration. Consider `C[C@@H]1CN(c2cc(F)c(-c3cnc(N4CCOCC4)nc3)cc2NC(=O)c2cccc(Cl)c2Cl)C[C@H](C)N1C` [Example 213, 2,3-dichloro-N-[4-fluoro-5-(2-morpholin-4-ylpyrimidin-5-yl)-2-[(3R,5S)-3,4,5-trimethylpiperazin-1-yl]phenyl]benzamide], for which the Kd was found to be 6.91 nM.

Turning to `C[C@@H]1CN(c2cc(F)c(-c3cnc(N(C)C)c(C#N)c3)cc2NC(=O)c2c[nH]c(=O)cc2C(F)(F)F)C[C@H](C)N1C` [Example 220, N-[5-[5-cyano-6-(dimethylamino)pyridin-3-yl]-4-fluoro-2-[(3R,5S)-3,4,5-trimethylpiperazin-1-yl]phenyl]-6-oxo-4-(trifluoromethyl)-1H-pyridine-3-carboxamide], the Kd is 2.25 nM.

With `C[C@@H]1CN(c2cc(F)c(-c3cnc(N4CCOCC4)c(Cl)c3)cc2NC(=O)c2c[nH]c(=O)cc2C(F)(F)F)C[C@H](C)N1C` [Example 222, N-[5-(5-chloro-6-morpholin-4-ylpyridin-3-yl)-4-fluoro-2-[(3R,5S)-3,4,5-trimethylpiperazin-1-yl]phenyl]-6-oxo-4-(trifluoromethyl)-1H-pyridine-3-carboxamide], the Kd was found to be 1.34 nM.

As to `C[C@@H]1CN(c2cc(F)c(-c3cnc4c(c3)OCCO4)cc2NC(=O)c2c[nH]c(=O)cc2C(F)(F)F)C[C@H](C)N1C` [Example 223, N-[5-(2,3-dihydro-[1,4]dioxino[2,3-b]pyridin-7-yl)-4-fluoro-2-[(3R,5S)-3,4,5-trimethylpiperazin-1-yl]phenyl]-6-oxo-4-(trifluoromethyl)-1H-pyridine-3-carboxamide], the equilibrium dissociation constant (Kd) worked out at 1.63 nM.

In the case of `CN1CCN(c2cc(F)c(-c3cnc(N4CCOCC4)nc3)cc2NC(=O)c2c[nH]c(=O)cc2C(F)(F)F)CC1(C)C` [Example 225, N-[4-fluoro-5-(2-morpholin-4-ylpyrimidin-5-yl)-2-(3,3,4-trimethylpiperazin-1-yl)phenyl]-6-oxo-4-(trifluoromethyl)-1H-pyridine-3-carboxamide], the Kd turned out to be 3000 nM.

For `C[C@@H]1CN(c2cc(F)c(-c3ccnc(N4CCOCC4)c3)cc2NC(=O)c2cn(C)c(=O)cc2C(F)(F)F)C[C@H](C)N1C` [Example 226, N-[4-fluoro-5-(2-morpholin-4-ylpyridin-4-yl)-2-[(3R,5S)-3,4,5-trimethylpiperazin-1-yl]phenyl]-1-methyl-6-oxo-4-(trifluoromethyl)pyridine-3-carboxamide], the Kd amounted to 7.99 nM.

Regarding `C[C@@H]1CN(c2cc(F)c(-c3ccc(N4CCCC4)cc3)cc2NC(=O)c2cn(C)c(=O)cc2C(F)(F)F)C[C@H](C)N1C` [Example 227, N-[4-fluoro-5-(4-pyrrolidin-1-ylphenyl)-2-[(3R,5S)-3,4,5-trimethylpiperazin-1-yl]phenyl]-1-methyl-6-oxo-4-(trifluoromethyl)pyridine-3-carboxamide], the Kd is 9.14 nM.

`C[C@@H]1CN(c2cc(F)c(-c3ccc(OCC4CC4)cc3)cc2NC(=O)c2cn(C)c(=O)cc2C(F)(F)F)C[C@H](C)N1C` [Example 228, N-[5-[4-(cyclopropylmethoxy)phenyl]-4-fluoro-2-[(3R,5S)-3,4,5-trimethylpiperazin-1-yl]phenyl]-1-methyl-6-oxo-4-(trifluoromethyl)pyridine-3-carboxamide]: the equilibrium dissociation constant (Kd) turned out to be 7.26 nM.

Consider `C[C@@H]1CN(c2cc(F)c(-c3cnc(N4CCOCC4)nc3)cc2NC(=O)c2cccc(F)c2F)C[C@H](C)N1C` [Example 229, 2,3-difluoro-N-[4-fluoro-5-(2-morpholin-4-ylpyrimidin-5-yl)-2-[(3R,5S)-3,4,5-trimethylpiperazin-1-yl]phenyl]benzamide], for which the dissociation constant (Kd) was 83 nM.

Take `C[C@@H]1CN(c2cc(F)c(C3=CCN(C4CCCC4)CC3)cc2NC(=O)c2c[nH]c(=O)cc2C(F)(F)F)C[C@H](C)N1C` [Example 231, N-[5-(1-cyclopentyl-3,6-dihydro-2H-pyridin-4-yl)-4-fluoro-2-[(3R,5S)-3,4,5-trimethylpiperazin-1-yl]phenyl]-6-oxo-4-(trifluoromethyl)-1H-pyridine-3-carboxamide]: the Kd came out at 2.51 nM.

For the compound `COc1ccc(C(C)N2CC=C(c3cc(NC(=O)c4c[nH]c(=O)cc4C(F)(F)F)c(N4C[C@@H](C)N(C)[C@@H](C)C4)cc3F)CC2)cc1` (stereo partly drawn) [Example 232, N-[4-fluoro-5-[1-[1-(4-methoxyphenyl)ethyl]-3,6-dihydro-2H-pyridin-4-yl]-2-[(3R,5S)-3,4,5-trimethylpiperazin-1-yl]phenyl]-6-oxo-4-(trifluoromethyl)-1H-pyridine-3-carboxamide], the Kd was found to be 2.72 nM.

As for `CCC(C)N1CC=C(c2cc(NC(=O)c3c[nH]c(=O)cc3C(F)(F)F)c(N3C[C@@H](C)N(C)[C@@H](C)C3)cc2F)CC1` (stereo partly drawn) [Example 233, N-[5-(1-butan-2-yl-3,6-dihydro-2H-pyridin-4-yl)-4-fluoro-2-[(3R,5S)-3,4,5-trimethylpiperazin-1-yl]phenyl]-6-oxo-4-(trifluoromethyl)-1H-pyridine-3-carboxamide], the Kd was determined as 3.89 nM.

Consider `CN(C)[C@@H]1CCN(c2cc(F)c(-c3ccc(N4CCOCC4)nc3)cc2NC(=O)c2c[nH]c(=O)cc2C(F)(F)F)C1` [Example 234, N-[4-fluoro-5-(6-morpholin-4-ylpyridin-3-yl)-2-[(3R)-3-(dimethylamino)pyrrolidin-1-yl]phenyl]-6-oxo-4-(trifluoromethyl)-1H-pyridine-3-carboxamide], for which the Kd came out at 1.86 nM.

On to `C[C@@H]1CN(c2cc(F)c(C3=CCN(C4COC4)CC3)cc2NC(=O)c2c[nH]c(=O)cc2C(F)(F)F)C[C@H](C)N1C` [Example 235, N-[4-fluoro-5-[1-(oxetan-3-yl)-3,6-dihydro-2H-pyridin-4-yl]-2-[(3R,5S)-3,4,5-trimethylpiperazin-1-yl]phenyl]-6-oxo-4-(trifluoromethyl)-1H-pyridine-3-carboxamide], for which the Kd was determined as 0.943 nM.

Regarding `C[C@@H]1CN(c2cc(F)c(C3CCNCC3)cc2NC(=O)c2c[nH]c(=O)cc2C(F)(F)F)C[C@H](C)N1C` [Example 236, N-[4-fluoro-5-piperidin-4-yl-2-[(3R,5S)-3,4,5-trimethylpiperazin-1-yl]phenyl]-6-oxo-4-(trifluoromethyl)-1H-pyridine-3-carboxamide], the Kd is 31.1 nM.

As for `CN(C)[C@@H]1CCN(c2cc(F)c(-c3ccc(O)nc3)cc2NC(=O)c2c[nH]c(=O)cc2C(F)(F)F)C1` [Example 237, N-[4-fluoro-5-(6-hydroxypyridin-3-yl)-2-[(3R)-3-(dimethylamino)pyrrolidin-1-yl]phenyl]-6-oxo-4-(trifluoromethyl)-1H-pyridine-3-carboxamide], the dissociation constant Kd was determined as 9.33 nM.

Regarding `CN(C)[C@@H]1CCN(c2cc(F)c(-c3ccc(OCC4CC4)nc3)cc2NC(=O)c2c[nH]c(=O)cc2C(F)(F)F)C1` [Example 238, N-[5-[6-(cyclopropylmethoxy)pyridin-3-yl]-4-fluoro-2-[(3R)-3-(dimethylamino)pyrrolidin-1-yl]phenyl]-6-oxo-4-(trifluoromethyl)-1H-pyridine-3-carboxamide], the Kd was found to be 5.11 nM.

Regarding `C[C@@H]1CN(c2cc(F)c(C3=CCN(C4CCN(C)CC4)CC3)cc2NC(=O)c2c[nH]c(=O)cc2C(F)(F)F)C[C@H](C)N1C` [Example 242, N-[4-fluoro-5-[1-(1-methylpiperidin-4-yl)-3,6-dihydro-2H-pyridin-4-yl]-2-[(3R,5S)-3,4,5-trimethylpiperazin-1-yl]phenyl]-6-oxo-4-(trifluoromethyl)-1H-pyridine-3-carboxamide], the Kd was 3.49 nM.
